Where two headings read alike, the source gives them in different places.
Key:
DOR = target: T1, DOR (Rattus norvegicus, UniProt P33533); assay: Opioid receptor binding, DOR, rat brain membranes
T1 construct: from tissue

MOR = target: T2, MOR (Rattus norvegicus, UniProt P33535); assay: Opioid receptor binding, MOR, rat brain membranes
T2 construct: from tissue

KOR = target: T3, KOR (Cavia porcellus, UniProt P41144); assay: Opioid receptor binding, KOR, guinea pig brain membranes
T3 construct: from tissue

[1] = in vitro binding assay, rat brain membranes, read-out: Binding Ki (nM) DOR
[2] = in vitro binding assay, rat brain membranes, read-out: Binding Ki (nM) MOR
[3] = in vitro binding assay, guinea pig brain membranes, read-out: Binding Ki (nM) KOR
[4] = Binding Ki (nM) DOR, in vitro binding assay, rat brain membranes
[5] = Binding Ki (nM) MOR, in vitro binding assay, rat brain membranes
[6] = Binding Ki (nM) KOR, in vitro binding assay, guinea pig brain membranes
[7] = Binding Ki DOR, Table 2-6, rat brain membranes
[8] = Binding Ki MOR, Table 2-6, rat brain membranes
[9] = Binding Ki KOR, Table 2-6, guinea pig brain membranes

T2 sequence (P33535 whole entry): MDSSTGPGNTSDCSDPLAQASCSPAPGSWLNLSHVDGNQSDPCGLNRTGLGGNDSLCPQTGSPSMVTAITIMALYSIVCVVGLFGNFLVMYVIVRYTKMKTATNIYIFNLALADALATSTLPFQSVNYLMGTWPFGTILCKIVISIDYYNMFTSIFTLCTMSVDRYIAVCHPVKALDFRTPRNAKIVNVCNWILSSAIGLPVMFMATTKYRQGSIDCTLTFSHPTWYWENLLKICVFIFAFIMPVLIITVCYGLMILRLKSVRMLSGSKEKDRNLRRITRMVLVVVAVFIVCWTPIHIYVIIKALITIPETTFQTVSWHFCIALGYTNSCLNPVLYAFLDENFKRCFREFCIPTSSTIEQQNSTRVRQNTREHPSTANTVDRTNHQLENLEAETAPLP
T1 sequence (P33533 whole entry): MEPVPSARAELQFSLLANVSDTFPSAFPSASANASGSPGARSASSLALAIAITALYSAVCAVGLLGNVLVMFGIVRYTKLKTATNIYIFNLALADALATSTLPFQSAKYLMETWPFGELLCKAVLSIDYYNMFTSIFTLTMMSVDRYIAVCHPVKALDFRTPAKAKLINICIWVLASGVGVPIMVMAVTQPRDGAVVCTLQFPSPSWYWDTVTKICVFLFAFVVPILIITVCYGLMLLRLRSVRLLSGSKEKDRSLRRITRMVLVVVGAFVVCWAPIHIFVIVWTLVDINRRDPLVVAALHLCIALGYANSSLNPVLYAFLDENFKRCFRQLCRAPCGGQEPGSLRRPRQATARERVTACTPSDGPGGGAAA
T3 sequence (P41144 whole entry): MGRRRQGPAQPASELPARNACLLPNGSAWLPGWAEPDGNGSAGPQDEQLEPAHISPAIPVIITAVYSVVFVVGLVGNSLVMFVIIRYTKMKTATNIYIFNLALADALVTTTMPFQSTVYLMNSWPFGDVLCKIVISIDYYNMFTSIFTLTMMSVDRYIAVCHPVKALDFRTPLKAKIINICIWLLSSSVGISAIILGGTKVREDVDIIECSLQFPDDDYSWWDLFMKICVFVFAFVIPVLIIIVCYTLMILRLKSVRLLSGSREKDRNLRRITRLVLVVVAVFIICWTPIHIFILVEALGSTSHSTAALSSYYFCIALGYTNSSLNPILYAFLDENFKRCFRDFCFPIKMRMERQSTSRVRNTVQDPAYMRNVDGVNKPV

Compound	Ki (DOR; [1])	Ki (MOR; [2])	Ki (KOR; [3])	Ki (DOR; [4])	Ki (MOR; [5])	Ki (KOR; [6])	other results
CO[C@@]12CC[C@H](N[C@@H](CC(N)=O)C(=O)OC(C)(C)C)[C@@H]3Oc4c(O)ccc5c4[C@@]31CCN(C)[C@@H]2C5 [26-t-Bu ester]	0.33 nM	0.45 nM	5.33 nM				
CO[C@@]12CC[C@@H](N[C@@H](CC(N)=O)C(=O)OC(C)(C)C)[C@@H]3Oc4c(O)ccc5c4[C@@]31CCN(C)[C@@H]2C5 [27-t-Bu ester]				0.66 nM	0.6 nM	75.8 nM	
CO[C@@]12CC[C@H](N[C@H](C(=O)OC(C)(C)C)C(C)C)[C@@H]3Oc4c(O)ccc5c4[C@@]31CCN(C)[C@@H]2C5 [28-t-Bu ester]	0.18 nM	0.25 nM	10.5 nM				
CO[C@@]12CC[C@@H](N[C@H](C(=O)OC(C)(C)C)C(C)C)[C@@H]3Oc4c(O)ccc5c4[C@@]31CCN(C)[C@@H]2C5 [29-t-Bu ester]				0.86 nM	1.03 nM	214 nM	
CO[C@@]12CC[C@H](N[C@@H](C(=O)OC(C)(C)C)C(C)C)[C@@H]3Oc4c(O)ccc5c4[C@@]31CCN(C)[C@@H]2C5 [30-t-Bu ester]	0.093 nM	0.11 nM	22.7 nM				
CO[C@@]12CC[C@@H](N[C@@H](C(=O)OC(C)(C)C)C(C)C)[C@@H]3Oc4c(O)ccc5c4[C@@]31CCN(C)[C@@H]2C5 [31-t-Bu ester]	0.21 nM	1.98 nM	206 nM				
CO[C@@]12CC[C@H](N[C@H](C(=O)N[C@@H](Cc3ccc(O)cc3)C(=O)OC(C)(C)C)C(C)C)[C@@H]3Oc4c(O)ccc5c4[C@@]31CCN(C)[C@@H]2C5 [32-t-Bu ester]	0.17 nM		3.5 nM		0.11 nM		
CO[C@@]12CC[C@H](N[C@H](C(=O)OC(C)(C)C)[C@@H](C)O)[C@@H]3Oc4c(O)ccc5c4[C@@]31CCN(C)[C@@H]2C5 [34-t-Bu ester]				0.37 nM	0.2 nM	9.24 nM	
CO[C@@]12CC[C@@H](N[C@H](C(=O)OC(C)(C)C)[C@@H](C)O)[C@@H]3Oc4c(O)ccc5c4[C@@]31CCN(C)[C@@H]2C5 [35-t-Bu ester]				0.65 nM	0.51 nM	102 nM	
CO[C@@]12CC[C@H](N[C@@H](CO)C(=O)OC(C)(C)C)[C@@H]3Oc4c(O)ccc5c4[C@@]31CCN(C)[C@@H]2C5 [36-t-Bu ester]				0.17 nM	0.2 nM	6.2 nM	
CO[C@@]12CC[C@@H](N[C@@H](CO)C(=O)OC(C)(C)C)[C@@H]3Oc4c(O)ccc5c4[C@@]31CCN(C)[C@@H]2C5 [37-t-Bu ester]	0.64 nM	0.6 nM	83.3 nM				
CO[C@@]12CC[C@H](N[C@@H](CCCCN)C(=O)OC(C)(C)C)[C@@H]3Oc4c(O)ccc5c4[C@@]31CCN(C)[C@@H]2C5 [38-t-Bu ester]	0.092 nM	0.17 nM	0.89 nM				
CO[C@@]12CC[C@@H](N[C@@H](CCCCN)C(=O)OC(C)(C)C)[C@@H]3Oc4c(O)ccc5c4[C@@]31CCN(C)[C@@H]2C5 [39-t-Bu ester]	0.88 nM	0.58 nM	21.4 nM				
CO[C@@]12CC[C@H](N[C@@H](CC(C)C)C(=O)OC(C)(C)C)[C@@H]3Oc4c(O)ccc5c4[C@@]31CCN(C)[C@@H]2C5 [40-t-Bu ester]				0.13 nM	0.087 nM	8.07 nM	
CO[C@@]12CC[C@@H](N[C@@H](CC(C)C)C(=O)OC(C)(C)C)[C@@H]3Oc4c(O)ccc5c4[C@@]31CCN(C)[C@@H]2C5 [41-t-Bu ester]				0.42 nM	0.57 nM	240 nM	
CO[C@@]12CC[C@@H](N[C@@H](Cc3c[nH]c4ccccc34)C(=O)OC(C)(C)C)[C@@H]3Oc4c(O)ccc5c4[C@@]31CCN(C)[C@@H]2C5 [46-t-Bu ester]	0.36 nM	0.26 nM	9.89 nM				
CCO[C@@]12CC[C@H](N[C@@H](Cc3ccccc3)C(=O)OC(C)(C)C)[C@@H]3Oc4c(O)ccc5c4[C@@]31CCN(CC1CC1)[C@@H]2C5 [55-tBu ester]							Ki (DOR; [7]): 2.38 nM; Ki (MOR; [8]): 0.63 nM; Ki (KOR; [9]): 4.12 nM
CCO[C@@]12CC[C@@H](N[C@@H](Cc3ccccc3)C(=O)OC(C)(C)C)[C@@H]3Oc4c(O)ccc5c4[C@@]31CCN(CC1CC1)[C@@H]2C5 [56-tBu ester]							Ki (DOR; [7]): 6.33 nM; Ki (MOR; [8]): 2 nM; Ki (KOR; [9]): 17.9 nM
CO[C@@]12CC[C@H](N[C@@H](Cc3ccccc3)C(=O)OC(C)(C)C)[C@@H]3Oc4c(O)ccc5c4[C@@]31CCN(CC1CC1)[C@@H]2C5 [57-tBu ester]							Ki (DOR; [7]): 0.58 nM; Ki (MOR; [8]): 0.68 nM; Ki (KOR; [9]): 1.78 nM
CO[C@@]12CC[C@@H](N[C@@H](Cc3ccccc3)C(=O)OC(C)(C)C)[C@@H]3Oc4c(O)ccc5c4[C@@]31CCN(CC1CC1)[C@@H]2C5 [58-tBu ester]							Ki (DOR; [7]): 4.56 nM; Ki (MOR; [8]): 2.41 nM; Ki (KOR; [9]): 13.1 nM

From patent US20170217976A1, “6-(AMINO ACID)-MORPHINAN DERIVATIVES IN COMBINATION WITH PERMEATION […] FOR USE AS AN ORALLY, […], TRA[…] NASALLY AD[…]” (C[…], priority 2014, published 2017)
